The source of these data is PubChem BioAssay (NCI).

What all share (experiment): NCI tumour cell line growth inhibition, 48 h
Experiment [1] relates to DLD-1 colon.
Experiment [2] concerns DMS 273 small cell lung.
Experiment [3] has as its system HOP-18 NSCLC.
The subject of experiment [4] is RXF-631 renal.
The test system of experiment [5] is SNB-78 CNS.
The subject of experiment [6] is MDA-N.
The test system of experiment [7] is DMS 114 small cell lung.
For experiment [8], the system named is M19-MEL melanoma.
The subject of experiment [9] is XF 498 CNS.
For experiment [10], the system named is P388 leukemia.
In experiment [11] the test system is SN12K1 renal.

SMILES strings stand for the structures. Values joined by “and” are separate entries in the source; they are usually repeats but may differ in a detail not shown here. Equal values may be shown once.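 The compound was tested at five concentrations on cells cultured in 96-well plates, with a 48-hour exposure period. GI50 marks 50% less growth. The concentration for full growth arrest is given as TGI.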

On to `Nc1nc(Cl)cc(NCCCCCNc2cc(Cl)nc(N)n2)n1`, for which the TGI in experiment [1] is greater than 100 µM; in experiment [2], greater than 100 µM; in experiment [3], greater than 100 µM; in [4] it was greater than 100 µM; in experiment [5], 88 µM.
Turning to `N.N.N.N.O=NN1CCCCCC1(P(=O)([O-])[O-])P(=O)([O-])[O-].[Pt+4].[Pt+4]`, the GI50 in experiment [1], in [2] and in experiment [3] was greater than 100 µM throughout. Further, the TGI in [1], in experiment [2] and in experiment [3] was greater than 100 µM in each case.
The molecule `COC(=O)NC1(NC(=O)OC)NC(=O)c2cc(OC)c(OC)cc2N1` returned a TGI in [6] of 16 µM.
On to `COc1cccc(NC(=O)C(C)(C)C)c1C=O`, for which the TGI in experiment [1], in experiment [7], in experiment [3], in [8], in [4] and in experiment [5] was greater than 100 µM in each case. The same molecule displayed a TGI in experiment [9] of 85.4 µM.
As to `CC1=C(C(=O)Nc2ccccc2)C(c2ccc([N+](=O)[O-])cc2)C(C(=O)Nc2ccccc2)=C(C)N1`, the TGI is greater than 100 µM in experiment [1]; 52.1 µM in experiment [7]; 72.4 µM in experiment [2]; 32.1 µM in [8]; greater than 100 µM in [4]; greater than 100 µM in experiment [5]. Moreover, the TGI in experiment [9] is 49.2 µM.
Regarding `COc1cc2c3c(c4ccc(OC)c(OC)c4c2cc1OC)CN1CCC[C@@H]1C3`, the TGI in [6] was found to be 12.2 µM.
Consider `O=C(NCCO)c1cc2c(cn1)[nH]c1ccccc12`, for which the TGI in experiment [1], in experiment [7], in experiment [2], in experiment [4], in experiment [5] and in [9] was greater than 100 µM throughout.
As for `C=CCCCn1ccc2ccccc21`, the TGI in [1], in [7], in [3], in experiment [8], in [4] and in [9] was greater than 100 µM each time.
With `c1ccc(N=c2snc3scc(-c4ccccc4)n23)cc1`, the TGI was greater than 100 µM in [1]; 88.8 µM in [7]; greater than 100 µM in experiment [2]; greater than 100 µM in experiment [3]; greater than 100 µM in [8]; greater than 100 µM in experiment [4]. Besides, the TGI in experiment [5] was greater than 100 µM; in experiment [9], 66.6 µM.
Turning to `CCCCCCCCCCCCCCCCOCC(CN(C)CCN(C)C)OCCCCCCCCCCCCCCCC` (centres undefined), the TGI in experiment [1], in experiment [7], in experiment [2], in [3], in [8] and in experiment [4] was greater than 100 µM in each case. In experiment [5], this molecule showed a TGI greater than 100 µM.
For the molecule `O=C(O)C1=C(C(=O)Nc2ccccc2)C2C=CC1C2` (centres undefined), the TGI in [1], in experiment [7], in [2], in experiment [3], in experiment [8] and in experiment [5] was greater than 100 µM throughout. The TGI in experiment [9] is greater than 100 µM.
In the case of `Cc1ccc(-n2c3nc(=O)n(C)c(=O)c-3nc3ccccc32)cc1`, the TGI in [1] was greater than 100 µM; in [7], 27.6 µM; in [2], 20.1 µM; in experiment [3] it was 40.4 µM; in experiment [5] it was greater than 100 µM; in experiment [9], 55.9 µM.
Regarding `CCc1c2c(nc3cc4c(c(N)c13)OCO4)-c1cc3c(c(=O)n1C2)COC(=O)[C@]3(O)CC`, the TGI in experiment [6] is greater than 100 µM.
Take `CC1=C(C(=O)Nc2ccccc2C)C(c2ccc(C3C(C(=O)Nc4ccccc4C)=C(C)NC(C)=C3C(=O)Nc3ccccc3C)cc2)C(C(=O)Nc2ccccc2C)=C(C)N1`: the TGI in experiment [1] was found to be 5.66 µM; in experiment [7], 14 µM; in [2] it was 11.4 µM; in [8], 12.3 µM; in [6] it was 19.9 µM; in experiment [4] it was 28.4 µM. The TGI came out at 16.7 µM in experiment [5] and 35.6 µM in experiment [9].
Take `O=C1Nc2cc(Cl)ccc2N=CC1NC(=O)C(c1ccccc1)c1ccccc1Cl` (centres undefined): the TGI in experiment [1], in experiment [7], in [2], in experiment [3], in experiment [8] and in experiment [4] was greater than 100 µM throughout. In experiment [5], this molecule came in with a TGI greater than 100 µM.
With `C[C@H](N)C(=O)N[C@@H]1[C@H]2C(=C(O)C[C@@H](O)[C@@H]2O)C(=O)O[C@]1(C)C(Cl)Cl`, the GI50 is 0.185 µM in experiment [1]; 0.279 µM in experiment [2]; 0.375 µM in experiment [3]; 0.438 µM in experiment [6]; 0.211 µM in experiment [9]. Moreover, the TGI was 1.62 µM and 2.43 µM in experiment [1]; 0.98 µM and 1.28 µM in experiment [7]; 1.57 µM and 1.44 µM in [2]; 4.39 µM and 2.76 µM in [3]; 1.22 µM and 2.62 µM in [8]; 0.453 µM in experiment [10]. Moreover, the TGI in experiment [4] was 1.93 µM; in [11], 1.58 µM; in experiment [5], 2.1 µM; in experiment [9], 1.05 µM and 0.31 µM.
Regarding `Cc1c(-c2ccccc2)c(=O)oc2ccc(Cl)cc12`, the TGI in [1], in experiment [7], in [2], in [3], in experiment [8] and in [5] was greater than 100 µM throughout.
As for `CCSC(SCC)c1cc2c(cc1Br)OCO2`, the TGI in experiment [1] is greater than 100 µM; in experiment [7] it was 50.4 µM; in [2], 20.1 µM; in [8], greater than 100 µM; in experiment [4] it was 73.7 µM; in experiment [5] it was greater than 100 µM. This molecule also yielded a TGI in experiment [9] of 59.4 µM.
`O=c1[nH]cc(/C=N\Nc2ccccc2)c(=O)[nH]1` yielded a TGI in experiment [6] greater than 100 µM.
On to `C=CC(=O)N1C/C(=C\c2ccccc2)C(=O)/C(=C/c2ccccc2)C1`, for which the TGI in experiment [1] was determined as 1.15 µM; in [7], 2.73 µM; in [2], 2.13 µM; in [3], 9.97 µM; in experiment [8], 2.48 µM; in experiment [6], 1.07 µM. This molecule also came in with a TGI in experiment [9] of 3.54 µM. Besides, in experiment [6], the GI50 is 0.427 µM.
In turn, `CNC1C(O)C(OC2C(N)CC(N)C(OC3OC(CN)=CCC3N)C2O)OCC1(C)O` (centres undefined) came in with a TGI in experiment [6] greater than 100 µM.
Still for that read-out and setting: the same measure for `NC(=O)/C(=C\c1ccncc1)c1cccc2ccccc12`: greater than 100 µM; for `CCCOc1ccc(-c2nc(-c3ccc(N=Cc4ccc(N(CCOS(C)(=O)=O)CCOS(C)(=O)=O)cc4C)cc3)cs2)cc1`: greater than 85 µM; for `COc1c2ccoc2cc2oc(=O)ccc12`: greater than 100 µM.
Take `O=C1OC(c2ccccc2)=N/C1=C\c1ccc2ccccc2c1`: the TGI in experiment [1], in experiment [7], in experiment [3], in experiment [8], in experiment [5] and in [9] was greater than 100 µM each time.
The molecule `CC1=CC(=O)CC(C)(C)C1(O)/C=C/C(C)=C/C(=O)O` (centres undefined) showed a TGI in [6] greater than 100 µM.
For `Sc1ccc2ccccc2c1CNCc1ccccc1`, the TGI in [6] came out at 37.6 µM.
For `C=CCCOC(=O)CO[N+](=O)[O-]`, the TGI in experiment [1], in experiment [7], in [2], in [8] and in experiment [9] was greater than 100 µM throughout.
As for `C[C@H]1CC[C@H]([C@@H](C)[C@H]2[C@@H](O)C[C@H]3[C@@H]4CC[C@H]5C[C@@H](O)CC[C@]5(C)[C@H]4CC[C@]23C)NC1`, the TGI in experiment [6] was determined as 43.8 µM.
With `CSc1nc(NC2OCC(OC(C)=O)C(OC(C)=O)C2OC(C)=O)c(N=C(C)C(C)=O)c(=O)n1C` (centres undefined), the TGI in experiment [1], in experiment [7], in experiment [2], in [3], in experiment [8] and in experiment [4] was greater than 100 µM in each case. The TGI in experiment [5] and in experiment [9] was greater than 100 µM each time.
For the molecule `C#Cc1c(C)c(/C=C/C(C)=C/C=C/C(C)=C/C(=O)OC)n(C)c1C`, the TGI in [1], in [7], in experiment [8], in experiment [4], in [5] and in experiment [9] was greater than 100 µM in each case.
Take `CO/[N+]([O-])=C\C(=O)N/C=C/C(=O)O`: the TGI in [6] is greater than 100 µM.
In the case of `COc1cc(Br)c(CC2(C#N)c3ccccc3C3C(N2C(=O)c2ccccc2)C3(Cl)Cl)cc1OC` (centres undefined), the TGI in [1], in experiment [7], in experiment [2], in [3], in experiment [5] and in experiment [9] was greater than 65.5 µM each time.
With `COc1cc2c(c(OC)c1O)-c1ccc(OC)c(=O)cc1[C@@H](NC(=O)C(F)(F)F)CC2`, the TGI in experiment [6] amounted to 0.0628 µM.
Consider `CCN(CC)CC.CCOc1ccc(NC(=O)N=C=[N-])cc1.[CH-]1CCCCC1.[CH-]1CCCCC1.[CH-]1CCCCC1.[Cl-].[Sn+4]`, for which the GI50 in experiment [1] was 0.018 µM; in experiment [7], 0.0214 µM; in experiment [2] it was 0.0185 µM; in experiment [3], 0.0135 µM; in [8], 0.0208 µM; in experiment [6] it was 0.0205 µM. The GI50 was 0.0202 µM in [4], 0.0472 µM in experiment [5] and 0.0335 µM in experiment [9]. The TGI in experiment [1] was 0.0478 µM; in [7], 0.0594 µM; in [2], 0.0482 µM; in experiment [3] it was 0.0376 µM; in [8] it was 0.0513 µM; in experiment [6] it was 0.0471 µM. Further, the results for the TGI in [4], in experiment [5] and in experiment [9] were 0.0648 µM, 0.373 µM and 0.103 µM, respectively.
With `CCOC(=O)Cc1nc2ccccc2s1`, the TGI in experiment [1] was 33.5 µM; in experiment [2] it was 55.4 µM; in [3], 74.3 µM; in experiment [8], 40.6 µM; in [4] it was 33.8 µM; in [5], 33 µM. The TGI in experiment [9] was 28 µM.
With `Cc1nnc(N=Nc2c(O)[nH]c3c(Cl)cc(Cl)cc23)n1N`, the TGI in experiment [1], in experiment [3], in experiment [8] and in [5] was greater than 100 µM throughout.
As for `O=C(Cc1nc2ccccc2s1)Nc1ccc(Cl)cc1`, the TGI in experiment [1], in experiment [2], in [8], in [5] and in experiment [9] was greater than 100 µM each time.
